Source: US4742045A, “Glycopeptide antibiotics” (SmithKline Beckman Corporation, priority 1986, dated 1988)
≈ marks a conversion by molar mass, not a printed value. Where two headings read alike, the source gives them in different places.

Legend:
[1] = test system: Staphylococcus epidermidis; test: standard microtiter assay, minimum inhibitory concentration; assay type: cell-based
From the text: (§1) Representative results of standard microtiter assays are reported in Tables 1, 2 and 3 which follow, as the minimum inhibitory concentration of antibiotic (μg/ml).
(§2) In Table 1, test organisms 1-13 were different strains of Staphylococcus aureus, and 14-16 were different strains of Staphylococcus epidermidis. In Table 2, test organisms 1-5 were different strains of S. aureus; 6, 8, 12 and 14 were different strains of S. epidermidis; 7 was a Staphylococcus haemolyticus; 9 and 10 were different strains of Streptococcus faecalis; 11 was a Streptococcus pyogenes; and 13 was a Staphylococcus saprophyticus. In Table 3, test organisms 1-3 were different strains of S. aureus; 4 and 6 were different strains of S. epidermidis; 5 was a S. haemolyticus and 7 and 8 were different strains of Streptococcus faecalis. Except where individual components are indicated, the CWI-785 antibiotic employed was the CWI-785 complex; in some cases, HCl salts of the CWI-785 antibiotic were employed.
(§3) In Table 5 are shown data from standard microtiter assays carried out in a presence of no serum, 50% human serum (hum.) and 50% mouse serum (mse.). The test organisms were 1: S. aureus; 2,4 and 5: different strains of S. epidermidis; 3: S. haemolyticus; 6: S. saprophyticus; 7 and 8: different strains of S. faecalis.

[2] = test system: Staphylococcus haemolyticus; test: as above; assay type: cell-based; details: Table 3 test organism 5, S. haemolyticus
From the text: as §1, §2, §3

Streptococcus faecalis = test: as above; assay type: cell-based
From the text: as §1, §2
(§4) The number of strains tested is shown in parentheses below each organism. The average MIC is reported in μg/ml.
as §3

Staphylococcus aureus = test: as above; assay type: cell-based; details: for MIC: Staphylococcus aureus, read-out: minimum inhibitory concentration
From the text: as §1, §2, §4, §3

STAPH. AUREUS HH 127 = test: prophylactic activity, dosing preinfection; assay type: in vivo, mice; details: for survival printed in parentheses under ED 50: Table 8, printed with ED 50 <0.156
[3] = test system: buffered rumen fluid from a donor steer; test: 23 hour flask rumen fermentation, volatile fatty acid production
Method: The effects of each additive on 23 hour flask rumen fermentation were assayed. Each flask contained 10 ml of rumen fluid and 10 ml of nutrient broth comprising (mg/flask): casein hydrolysate: 20, maltose: 100, urea: 15, solka floc (cellulose): 400 and starch: 100. The flasks were incubated on a shaker at 39° C.
In Table A, ACE is acetate, PRO is propionate, IBU is isobutyrate, BUT is butyrate, IVA is isovalerate, VAL is valerate, TOTAL is total VFA and %PR is the amount of propionate relative to TOTAL. Amounts of each VFA are reported as percentages of control ruminant fluid, that is, without additive.

cecum fluid from a swine = test: swine in vitro model, cecum fluid incubation
Method: The swine in vitro model was carried by incubating 1.5 ml of cecum fluid, from a swine fed normal rations, mixed with 1.5 ml of a nutrient broth (3 mg casein hydrolysate, 30 mg maltose, 1.25 mg urea, 0.5 mg lysine, and 30 mg cellobiose) and with up to 166.67 parts per million of a selected growth promotant at 39° C., with oscillation, for about 4-5 hours. Results, percentage of control, are reported in the following table in which all abbreviations are as above and LLAC means L-lactate, ETOH means ethanol and GLU means glucose.

[4] = Table 3 test organism 4, S. epidermidis strain
[5] = Table 3 test organism 6, S. epidermidis strain
[6] = Table 3 test organism 7, Streptococcus faecalis strain
[7] = Table 3 test organism 8, Streptococcus faecalis strain
[8] = Table 3 test organism 1, S. aureus strain
[9] = Table 3 test organism 2, S. aureus strain
[10] = Table 3 test organism 3, S. aureus strain
[11] = Table 7, vs Staph. aureus HH 127 (S.C.), read-out: ED50
[12] = Table 7: 40 mg/kg, 4 hr preinfection, S.C.
[13] = Table 8, vs Staph. aureus HH 127 (I.V.)
[14] = Table 8: 40 mg/kg (I.V.), 6 hr preinfection

## CN[C@H](C(=O)NC1C(=O)NC(CCSC)C(=O)NC2C(=O)NC3C(=O)NC(C(=O)NC(C(=O)O)c4cc(O)cc(O)c4-c4cc3ccc4O)C(O)c3ccc(c(Cl)c3)Oc3cc2cc(c3O)Oc2ccc(cc2)C1O)c1ccc(O)cc1 (some centres unmarked) [CWI-785B"-aglycone]
[1]; [4]
  minimum inhibitory concentration: 25.0 µg/mL (≈ 21.5 µM)
[1]; [5]
  minimum inhibitory concentration: 25.0 µg/mL (≈ 21.5 µM)
[2]
  minimum inhibitory concentration: 50.0 µg/mL (≈ 43 µM)
Streptococcus faecalis; [6]
  minimum inhibitory concentration: 3.1 µg/mL (≈ 2.67 µM)
Streptococcus faecalis; [7]
  minimum inhibitory concentration: 1.6 µg/mL (≈ 1.38 µM)
Staphylococcus aureus; [8]
  minimum inhibitory concentration: 25.0 µg/mL (≈ 21.5 µM)
Staphylococcus aureus; [9]
  minimum inhibitory concentration: 25.0 µg/mL (≈ 21.5 µM)
Staphylococcus aureus; [10]
  minimum inhibitory concentration: 25.0 µg/mL (≈ 21.5 µM)

## CN[C@@H](C(=O)NC1C(=O)NC(CCSC)C(=O)NC2C(=O)NC3C(=O)NC(C(=O)NC(C(=O)O)c4cc(O)cc(O)c4-c4cc3ccc4O)C(O)c3ccc(c(Cl)c3)Oc3cc2cc(c3O)Oc2ccc(cc2)C1O)c1ccc(O)cc1 (some centres unmarked) [CWI-785B'-aglycone]
[1]; [4]
  minimum inhibitory concentration: 3.1 µg/mL (≈ 2.67 µM)
[1]; [5]
  minimum inhibitory concentration: 6.3 µg/mL (≈ 5.42 µM)
[2]
  minimum inhibitory concentration: 6.3 µg/mL (≈ 5.42 µM)
Streptococcus faecalis; [6]
  minimum inhibitory concentration: 0.8 µg/mL (≈ 0.688 µM)
Streptococcus faecalis; [7]
  minimum inhibitory concentration: 0.8 µg/mL (≈ 0.688 µM)
Staphylococcus aureus; [8]
  minimum inhibitory concentration: 3.1 µg/mL (≈ 2.67 µM)
Staphylococcus aureus; [9]
  minimum inhibitory concentration: 3.1 µg/mL (≈ 2.67 µM)
Staphylococcus aureus; [10]
  minimum inhibitory concentration: 3.1 µg/mL (≈ 2.67 µM)

## CNC(C(=O)NC1C(=O)NC(CC[S+](C)[O-])C(=O)NC2C(=O)NC3C(=O)NC(C(=O)NC(C(=O)O)c4cc(O)cc(O)c4-c4cc3ccc4O)C(OC3CC(N)C(O)C(C)O3)c3ccc(c(Cl)c3)Oc3cc2cc(c3O)Oc2ccc(cc2)C1O)c1ccc(O)cc1.Cl (centres unmarked) [HPB3 hydrochloride]
STAPH. AUREUS HH 127; [11]
  ED50: 1.25 mg/kg
STAPH. AUREUS HH 127; [12]
  PERCENT SURVIVAL: 100%
STAPH. AUREUS HH 127
  survival printed in parentheses under ED 50: 90%
STAPH. AUREUS HH 127; [13]
  ED50: < 0.156 mg/kg
STAPH. AUREUS HH 127; [14]
  PERCENT SURVIVAL: 60%

## CNC(C(=O)NC1C(=O)NC(CCSC)C(=O)NC2C(=O)NC3C(=O)NC(C(=O)NC(C(=O)O)c4cc(O)cc(O)c4-c4cc3ccc4O)C(OC3CC(N)C(O)C(C)O3)c3ccc(c(Cl)c3)Oc3cc2cc(c3O)Oc2ccc(cc2)C1O)c1ccc(O)cc1.Cl (centres unmarked) [HPB4 hydrochloride]
STAPH. AUREUS HH 127; [11]
  ED50: 1.25 mg/kg
STAPH. AUREUS HH 127; [12]
  PERCENT SURVIVAL: 100%
STAPH. AUREUS HH 127
  survival printed in parentheses under ED 50: 100%
STAPH. AUREUS HH 127; [13]
  ED50: < 0.156 mg/kg
STAPH. AUREUS HH 127; [14]
  PERCENT SURVIVAL: 100%

## COc1cccc(OC)c1C(=O)N[C@@H]1C(=O)N2[C@@H]1SC(C)(C)[C@@H]2C(=O)O [Methicillin]
[1]; Staphylococcus epidermidis, Table 1 test organism 14, S. epidermidis strain, read-out: minimum inhibitory concentration
  MIC: 1.6 µg/mL (≈ 4.21 µM)
[1]; Table 1 test organism 15, S. epidermidis strain
  minimum inhibitory concentration: 1.6 µg/mL (≈ 4.21 µM)
[1]; Table 1 test organism 16, S. epidermidis strain
  minimum inhibitory concentration: 1.6 µg/mL (≈ 4.21 µM)
Staphylococcus aureus; Table 1 test organism 1, S. aureus strain
  MIC: 3.1 µg/mL (≈ 8.15 µM)
Staphylococcus aureus; Table 1 test organism 2, S. aureus strain
  MIC: 12.5 µg/mL (≈ 32.9 µM)
Staphylococcus aureus; Table 1 test organism 3, S. aureus strain
  MIC: 6.3 µg/mL (≈ 16.6 µM)
Staphylococcus aureus; Table 1 test organism 4, S. aureus strain
  MIC: 12.5 µg/mL (≈ 32.9 µM)
Staphylococcus aureus; Table 1 test organism 5, S. aureus strain
  MIC: 12.5 µg/mL (≈ 32.9 µM)
Staphylococcus aureus; Table 1 test organism 6, S. aureus strain
  MIC: 12.5 µg/mL (≈ 32.9 µM)
Staphylococcus aureus; Table 1 test organism 7, S. aureus strain
  MIC: > 50 µg/mL
Staphylococcus aureus; Table 1 test organism 8, S. aureus strain
  MIC: > 50 µg/mL
Staphylococcus aureus; Table 1 test organism 9, S. aureus strain
  MIC: > 50 µg/mL
Staphylococcus aureus; Table 1 test organism 10, S. aureus strain
  MIC: > 50 µg/mL
Staphylococcus aureus; Table 1 test organism 11, S. aureus strain
  MIC: > 50 µg/mL
Staphylococcus aureus; Table 1 test organism 12, S. aureus strain
  MIC: 50 µg/mL (≈ 131 µM)
Staphylococcus aureus; Table 1 test organism 13, S. aureus strain
  MIC: > 50 µg/mL

## CC[C@@]1([C@@H]2O[C@@H]([C@H]3O[C@@](O)(CO)[C@H](C)C[C@@H]3C)C[C@@H]2C)CC[C@H]([C@]2(C)CC[C@]3(C[C@H](O)[C@@H](C)[C@@H]([C@@H](C)[C@@H](OC)[C@H](C)C(=O)O)O3)O2)O1 [Monensin, monensin]
[3]; 0.50 PPM
  ACE (acetate): 108 percentages of control
  BUT (butyrate): 100 percentages of control
  IBU (isobutyrate): 101 percentages of control
  IVA (isovalerate): 246 percentages of control
  PRO (propionate): 96 percentages of control
  TOTAL (total VFA): 105 percentages of control
  VAL (valerate): 114 percentages of control
[3]; 5.00 PPM
  ACE (acetate): 96 percentages of control
  BUT (butyrate): 60 percentages of control
  IBU (isobutyrate): 77 percentages of control
  IVA (isovalerate): 106 percentages of control
  PRO (propionate): 174 percentages of control
  TOTAL (total VFA): 103 percentages of control
  VAL (valerate): 41 percentages of control
[3]; 50.00 PPM
  ACE (acetate): 91 percentages of control
  BUT (butyrate): 53 percentages of control
  IBU (isobutyrate): 104 percentages of control
  IVA (isovalerate): 134 percentages of control
  PRO (propionate): 211 percentages of control
  VAL (valerate): 38 percentages of control

## Virginiamycin
Cecum fluid from a swine; 1.67 PPM
  % PR (propionate relative to TOTAL): 99% OF CONTROL
  ACE (acetate): 138% OF CONTROL
  BUT (butyrate): 178% OF CONTROL
  ETOH (ethanol): 309% OF CONTROL
  GLU (glucose): 152% OF CONTROL
  IBU (isobutyrate): 0% OF CONTROL
  IVA (isovalerate): 251% OF CONTROL
  LLAC (L-lactate): 17% OF CONTROL
  PRO (propionate): 147% OF CONTROL
  TOTAL (total VFA): 148% OF CONTROL
  VAL (valerate): 262% OF CONTROL
Cecum fluid from a swine; 16.67 PPM
  % PR (propionate relative to TOTAL): 81% OF CONTROL
  ACE (acetate): 58% OF CONTROL
  BUT (butyrate): 95% OF CONTROL
  ETOH (ethanol): 273% OF CONTROL
  GLU (glucose): 151% OF CONTROL
  IBU (isobutyrate): 0% OF CONTROL
  IVA (isovalerate): 40% OF CONTROL
  LLAC (L-lactate): 32% OF CONTROL
  PRO (propionate): 42% OF CONTROL
  TOTAL (total VFA): 52% OF CONTROL
  VAL (valerate): 113% OF CONTROL
Cecum fluid from a swine; 166.67 PPM
  % PR (propionate relative to TOTAL): 59% OF CONTROL
  ACE (acetate): 45% OF CONTROL
  BUT (butyrate): 83% OF CONTROL
  ETOH (ethanol): 0% OF CONTROL
  GLU (glucose): 151% OF CONTROL
  IBU (isobutyrate): 0% OF CONTROL
  IVA (isovalerate): 56% OF CONTROL
  LLAC (L-lactate): 39% OF CONTROL
  PRO (propionate): 20% OF CONTROL
  TOTAL (total VFA): 34% OF CONTROL
  VAL (valerate): 84% OF CONTROL
